Reference: ChEMBL document CHEMBL6153033, “Design and synthesis of N-(3-cyanothiophen-2-yl)-2-phenoxyacetamide-based α-glucosidase inhibitors” (Bioorg Med Chem Lett, 2025)
≈ marks a conversion by molar mass, not a printed value. Each block holds one molecule with its values, some of them ahead of it.

Experiments:
[1] = target: T1, Alpha glucosidase (Homo sapiens, UniProt O43451+P10253+P14410+Q2M2H8); test: Inhibition of alpha-glucosidase (unknown origin); type: protein assay
[2] = target: T1, Alpha glucosidase; test: Inhibition of alpha-glucosidase (unknown origin) assessed as inhibition rate at 100 uM relative to control; type: protein assay
[3] = Inhibition of alpha-amylase (unknown origin); design: species or system Homo sapiens
[4] = Selectivity index, ratio of IC50 for alpha-amylase (unknown origin) to IC50 for alpha-glucosidase (unknown origin)
[5] = Cytotoxicity against human LO2 cells by MTT assay; type: toxicity, cell-based, L02
[6] = Aqueous solubility of compound; type: physicochemical
[7] = Stability in mouse plasma assessed as compound remaining parent compound after 1 hrs; type: ADME, cell-free; details: read-out: Stability
[8] = Stability in mouse plasma assessed as compound remaining parent compound after 6 hrs; type: ADME, cell-free; details: read-out: Stability
[9] = Stability in mouse plasma assessed as compound remaining parent compound after 0.5 hrs; type: ADME, cell-free; details: read-out: Stability
[10] = target: T1, Alpha glucosidase; test: Binding affinity to alpha-glucosidase (unknown origin) assessed as decreased in Vmax using p-nitrophenyl glucopyranoside as substrate at 1 to 16 uM by Lineweaver-Burk plot analysis; type: protein assay; details: dose 1-16 µM
[11] = target: T1, Alpha glucosidase; test: Binding affinity to alpha-glucosidase (unknown origin) assessed as inhibition constant; type: protein assay

Structure (SMILES): CC1CCc2c(sc(NC(=O)COc3ccc(C=O)cc3)c2C#N)C1 (centres undefined)
IC50 [1]: 24.28 µM

Structure (SMILES): COc1cc(C=O)ccc1OCC(=O)Nc1sc2c(c1C#N)CCC2
inhibition [2]: 70.4% | IC50 [1]: 35.6 µM

Structure (SMILES): COc1ccc(C=O)cc1OCC(=O)Nc1sc2c(c1C#N)CCC(C)C2 (centres undefined)
IC50 [1]: 4.69 µM | IC50 [3]: 38.5 µM | Selectivity Index [4]: 8.19 | CC50 [5]: > 200 µM | solubility [6]: 25 µM (≈ 9.61 µg/mL) | remaining at 1 h [7]: 35% | remaining at 6 h [8]: 0% | remaining at 0.5 h [9]: 76.5%

Structure (SMILES): Cc1cc(C=O)ccc1OCC(=O)Nc1sc2c(c1C#N)CCC(C)C2 (centres undefined)
IC50 [1]: 35.55 µM

Structure (SMILES): COc1cc(C=O)ccc1OCC(=O)Nc1sc2c(c1C#N)CCCCC2
inhibition [2]: 7.31%

Structure (SMILES): COc1ccc(CNC(=O)Nc2sc3c(c2C#N)CCCC3)c(OC)c1
inhibition [2]: 73.9% | IC50 [1]: 15.32 µM | solubility [6]: 28.6 µM (≈ 10.6 µg/mL) | remaining at 1 h [7]: 51.4% | remaining at 6 h [8]: 28.5% | remaining at 0.5 h [9]: 78%

Structure (SMILES): COc1cc(C=O)ccc1OCC(=O)Nc1sc2c(c1C#N)CCCC2
inhibition [2]: 70.4% | IC50 [1]: 14.09 µM

Structure (SMILES): Cc1ccc(C=O)c(OCC(=O)Nc2sc3c(c2C#N)CCC(C)C3)c1 (centres undefined)
IC50 [1]: > 50 µM

Structure (SMILES): COc1cc(C=O)ccc1OCC(=O)Nc1sc2c(c1C#N)CCCC2=O
inhibition [2]: 45.6%

Structure (SMILES): COc1cc(C=O)cc(OCC(=O)Nc2sc3c(c2C#N)CCC(C)C3)c1OC (racemic)
IC50 [1]: 2.11 µM | IC50 [3]: 36.9 µM | Selectivity Index [4]: 17.5 | CC50 [5]: > 200 µM | solubility [6]: 25 µM (≈ 10.4 µg/mL) | remaining at 1 h [7]: 61.3% | remaining at 6 h [8]: 50.6% | remaining at 0.5 h [9]: 84.3% | Activity [10]: Dose-dependent-effect | Ki [11]: 5.56 µM

Structure (SMILES): Cc1cccc(C=O)c1OCC(=O)Nc1sc2c(c1C#N)CCC(C)C2 (centres undefined)
IC50 [1]: > 50 µM

Structure (SMILES): COc1cc(C=O)ccc1OCC(=O)Nc1sc2c(c1C#N)CCOC2
inhibition [2]: 67.3% | IC50 [1]: 32.38 µM

Structure (SMILES): CC1CCc2c(sc(NC(=O)COc3ccccc3C=O)c2C#N)C1 (centres undefined)
IC50 [1]: > 50 µM

Structure (SMILES): COc1cc(C=O)ccc1OCC(=O)Nc1sc2c(c1C#N)CCC(C)C2 (centres undefined)
inhibition [2]: 93.4% | IC50 [1]: 7.42 µM | IC50 [3]: 51.7 µM | Selectivity Index [4]: 6.97 | CC50 [5]: > 200 µM | solubility [6]: 28.6 µM (≈ 11 µg/mL) | remaining at 1 h [7]: 72.9% | remaining at 6 h [8]: 33.6% | remaining at 0.5 h [9]: 83.3%

Second part, led by results:

IC50 [1]: 7.17 µM | IC50 [3]: 65.7 µM | Selectivity Index [4]: 9.2 | solubility [6]: 22.2 µM (≈ 8.53 µg/mL) | remaining at 1 h [7]: 42.7% | remaining at 6 h [8]: 30% | remaining at 0.5 h [9]: 57%
Structure (SMILES): COc1ccc(C=O)c(OCC(=O)Nc2sc3c(c2C#N)CCC(C)C3)c1 (centres undefined)
CC50 [5]: > 200 µM

inhibition [2]: 86.5% | IC50 [1]: 10.35 µM
Structure (SMILES): COc1cc(C=O)ccc1OCC(=O)Nc1sc2c(c1C#N)CCC(O)C2 (centres undefined)

inhibition [2]: 61.5% | IC50 [1]: 69.78 µM
Structure (SMILES): CCOC(=O)C1CCc2sc(NC(=O)COc3ccc(C=O)cc3OC)c(C#N)c21 (centres undefined)

inhibition [2]: 69.8% | IC50 [1]: 60.25 µM
Structure (SMILES): COC(=O)C1CCCc2sc(NC(=O)COc3ccc(C=O)cc3OC)c(C#N)c21 (centres undefined)

inhibition [2]: 15.7%
Structure (SMILES): COc1cc(C=O)ccc1OCC(=O)Nc1sc2c(c1C#N)CCC1(C2)OCCO1

IC50 [3]: 70 µM
Structure (SMILES): C[C@H]1O[C@H](O[C@H]2[C@H](O)[C@@H](O)[C@@H](O[C@H]3[C@H](O)[C@@H](O)C(O)O[C@@H]3CO)O[C@@H]2CO)[C@H](O)[C@@H](O)[C@@H]1N[C@H]1C=C(CO)[C@@H](O)[C@H](O)[C@H]1O (some centres undefined) [ACARBOSE]
CC50 [5]: > 200 µM

IC50 [1]: 20.85 µM
Structure (SMILES): CC1CCc2c(sc(NC(=O)COc3cccc(C=O)c3)c2C#N)C1 (centres undefined)
